Values of other authors, collected in patent US20230416797A1, “MODULATING ANTIMICROBIAL PEPTIDE HALF-LIFE” (Syngulon SA., priority 2020, published 2023).

Experiments:
[1] = test system: Candida species; details: against Candida species; Shekh and Roy (2012)
[2] = test system: fungal microbial organism; details: from B. subtilis; Zuber et al. (1993), Shenin et al. (1995)
[3] = test system: pathogenic Gram-positive and Gram-negative bacteria; details: against pathogenic Gram-positive and Gram-negative bacteria; Acuña et al. (2012)

WLPPAGLLGRCGRWFRPWLLWLQ SGAQY KWLGNLFGLGPK (WLPPAGLLGRCGRWFRPWLLWLQSGAQYKWLGNLFGLGPK; listed as Enterococcus faecalis) [SEQ ID NO: 1, an Enterococcus faecalis peptide]
neutralizing activity [1]: neutralizing activity

aurin B1
antifungal activities [2]: antifungal activities

botrycidin AJ1316
antifungal activities [2]: antifungal activities

B1: Ent35-MccV: fusion bacteriocin: N-terminal glycine, Enterocin CRL35, a linker comprising three glycines, and a C-terminal Microcin V (protein)
chain: GKYYGNGVSCNKKGCSVDWGRAIGIIGNNSAANLATGGAAGWKSGGGASGRDIAMAIGTLSGQFVAGGIGAAAGGVAGGAIYDYASTHKPNPAMSPSGLGGTIKQKPEGIPSEAWNYAAGRLCNWSPNNLSDVCL
modifications: Hybrid bacteriocin Ent35-MccV
notes: fusion bacteriocin: N-terminal glycine, Enterocin CRL35, a linker comprising three glycines, and a C-terminal Microcin V
antimicrobial activity [3]: antimicrobial activity
